{"source": "paper PMC3203990", "about": "(The FEBS journal, 2011)", "molecular_target": "FtCCAP (Francisella tularensis class C acid phosphatase) (Francisella tularensis, UniProt Q5NH51)", "sequence (Q5NH51 22-247 limits assumed)": "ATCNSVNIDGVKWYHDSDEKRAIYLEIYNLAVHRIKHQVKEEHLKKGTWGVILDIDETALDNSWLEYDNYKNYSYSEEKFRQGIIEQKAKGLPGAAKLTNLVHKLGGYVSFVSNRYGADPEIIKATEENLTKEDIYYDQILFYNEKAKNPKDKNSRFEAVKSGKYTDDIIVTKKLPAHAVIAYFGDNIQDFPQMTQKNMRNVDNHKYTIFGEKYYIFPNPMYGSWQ", "test": "biochemical"}
{"smiles": "Nc1ncnc2c1ncn2[C@@H]1O[C@H](COP(O)(O)=S)[C@@H](O)[C@H]1O", "note": "[AMPS]", "values": [{"measurement": "Ki", "value": "300 ± 30", "unit": "nM"}]}
